Results taken from the supplement of paper PMC11208160.

Assay: recombinant UMI read abundance after kanamycin selection (control-corrected) (log10(CPM+1)); higher = more efficient recombination; extreme values may be limits of the assay; sequences stand for … in AGTGCAGAGAAAATCGGCCAGTTTTCTCTGCCTGCAGTCCGCATGCCGTGGGACCCCTTGGGTTCTAACCTGTTGCCTAGATTTATGCAGCGGACTGCCTTTCTCCCAAAGTGATAAACCGG…AGGTTGGTTTCACT; site = the 11-nt donor
Summary of the method: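 In Escherichia coli, a pool of donor and donor-binding-loop pairs, each with a 12-nt UMI, was tested for the IS621 bridge recombinase. Plating was on IPTG (0.07 mM) plus kanamycin, or without selection, in two replicates. Recombinant UMIs were amplified by PCR across the donor–target junction and sequenced, and counts were reported as log10(CPM+1) after averaging and control-derived scaling.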
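Also: IS621 bridge recombinase in Escherichia coli cells against a fixed T5 target plasmid.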

Sequence | recombinant UMI read abundance (log10)
CGATGACCATGGACCGGTTTTCCCGGTAATCCGTATTTGGG (site CGAAGACCTCC) | 0.00605
CGATGACCATGGACCGGTTTTCCCGGTAATCCGTATTTGGG (site CGACGACCTCC) | 0.00326
CGATGACCATGGACCGGTTTTCCCGGTAATCCGTATTTGGG (site CGAGGACCTCC) | 0.0601
CGATGACCATGGACCGGTTTTCCCGGTAATCCGTATTTGGG (site CGATGACCTCC) | 0.0111
CGATGATCATGGACCGGTTTTCCCGGTAATCCGTATTTGAT (site CGATCATCTAG) | 0
CGATGATCATGGACCGGTTTTCCCGGTAATCCGTATTTGAT (site CGATGATCTAT) | 2.44
CGATGCACATGGACCGGTTTTCCCGGTAATCCGTATTTGAT (site CGATGCACTAT) | 2.34
CGATTACCATGGACCGGTTTTCCCGGTAATCCGTATTTGAT (site CGATTACCTAT) | 0
CGATTGGCATGGACCGGTTTTCCCGGTAATCCGTATTTGCT (site CGATTGGCTAG) | 0.768
CGATTGGCATGGACCGGTTTTCCCGGTAATCCGTATTTGCT (site CGCTTGGCTAG) | 0
CGATTGGCATGGACCGGTTTTCCCGGTAATCCGTATTTGCT (site CGGTTGGCTAG) | 0
CGATTGGCATGGACCGGTTTTCCCGGTAATCCGTATTTGCT (site CGTTTGGCTAG) | 0
CGATTTACATGGACCGGTTTTCCCGGTAATCCGTATTTGGC (site CGATTTACTGC) | 0
CGATTTCCATGGACCGGTTTTCCCGGTAATCCGTATTTGTT (site CGATTTCCTAA) | 0.757
CGCAACTCATGGACCGGTTTTCCCGGTAATCCGTATTTGAC (site CGCAACTCTGT) | 2.04
CGCAAGACATGGACCGGTTTTCCCGGTAATCCGTATTTGGT (site CGCAAGACTAC) | 1.19
CGCAATCCATGGACCGGTTTTCCCGGTAATCCGTATTTGAA (site AGCAATCCTTT) | 0.0753
CGCAATCCATGGACCGGTTTTCCCGGTAATCCGTATTTGAA (site CGCAATCCTTT) | 1.27
CGCAATCCATGGACCGGTTTTCCCGGTAATCCGTATTTGAA (site GGCAATCCTTT) | 0.00324

Sequence | recombinant UMI read abundance (log10)
CGCAATCCATGGACCGGTTTTCCCGGTAATCCGTATTTGAA (site TGCAATCCTTT) | 0.00288
CGCACCTCATGGACCGGTTTTCCCGGTAATCCGTATTTGGG (site CGCACCTCTCC) | 0.526
CGCAGACCATGGACCGGTTTTCCCGGTAATCCGTATTTGGG (site CGCAGACCTCC) | 0.0135
CGCAGTACATGGACCGGTTTTCCCGGTAATCCGTATTTGCT (site CGCAGTACTAG) | 1.44
CGCAGTACATGGACCGGTTTTCCCGGTAATCCGTATTTGCT (site CGCCGTACTAG) | 0
CGCAGTACATGGACCGGTTTTCCCGGTAATCCGTATTTGCT (site CGCGGTACTAG) | 0.749
CGCAGTACATGGACCGGTTTTCCCGGTAATCCGTATTTGCT (site CGCTGTACTAG) | 0
CGCAGTCCATGGACCGGTTTTCCCGGTAATCCGTATTTGAG (site CGCAGTCCTCT) | 0.438
CGCATATCATGGACCGGTTTTCCCGGTAATCCGTATTTGTC (site CACATATCTGA) | 0
CGCATATCATGGACCGGTTTTCCCGGTAATCCGTATTTGTC (site CCCATATCTGA) | 0
CGCATATCATGGACCGGTTTTCCCGGTAATCCGTATTTGTC (site CGCATATCTGA) | 1.86
CGCATATCATGGACCGGTTTTCCCGGTAATCCGTATTTGTC (site CTCATATCTGA) | 0.436
CGCATGTCATGGACCGGTTTTCCCGGTAATCCGTATTTGTT (site CGCATGTCTAA) | 2.52
CGCCCATCATGGACCGGTTTTCCCGGTAATCCGTATTTGCT (site CGATCATCTAG) | 0.57
CGCCCATCATGGACCGGTTTTCCCGGTAATCCGTATTTGCT (site CGCCCATCTAG) | 2.54
CGCCCTACATGGACCGGTTTTCCCGGTAATCCGTATTTGCT (site CGCCATACTAG) | 0
CGCCCTACATGGACCGGTTTTCCCGGTAATCCGTATTTGCT (site CGCCCTACTAG) | 1.28
CGCCCTACATGGACCGGTTTTCCCGGTAATCCGTATTTGCT (site CGCCGTACTAG) | 0.0214
CGCCCTACATGGACCGGTTTTCCCGGTAATCCGTATTTGCT (site CGCCTTACTAG) | 0
